Among the data in patent publication US20240307327A1, “DOSAGE FORMS OF MIRDAMETINIB” (SpringWorks Therapeutics, Inc., priority 2023, published 2024) are D10 values, retold here.

This data set is described as follows: Particle size distribution of mirdametinib drug substance lots (laser diffraction). Type of data set: physicochemical. To be noted: mirdametinib free base. The source says: As used herein, “D50” or “d50”, also known as the median diameter, corresponds to the value under which 50% of the particles has a lower volume diameter. “D90” or “d90” corresponds to the value under which 90% of the particles has a lower volume diameter. The particle size may be measured using wet standard laser diffraction particle sizing techniques known in the art. One example of an instrument to measure the particle size of the dry powders is the Mastersizer 3000, manufactured by Malvern Panalytical Ltd. (Malvern, UK). As particles are often non-spherical, it is difficult and complex to provide dimensional descriptions of these non-spherical particles. As used herein, “volume diameter” refers to diameter of a sphere with equal volume of the non-spherical particle.
Mirdametinib free base (Lots #1, 2, and 3) having the properties in the table below were prepared.

The molecule `O=C(NOC[C@H](O)CO)c1ccc(F)c(F)c1Nc1ccc(I)cc1F` [Lot 1, N-((R)-2,3-dihydroxypropoxy)-3,4-difluoro-2-(2-fluoro-4-iodo-phenylamino)benzamide] had a D10 of 4.9 μm.
Molecule `O=C(NOC[C@H](O)CO)c1ccc(F)c(F)c1Nc1ccc(I)cc1F` [Lot 2, N-((R)-2,3-dihydroxypropoxy)-3,4-difluoro-2-(2-fluoro-4-iodo-phenylamino)benzamide] had a D10 of 7.6 μm.
